These results are taken from ChEMBL document CHEMBL5346907, “Discovery of a novel oral type Ⅰ CDK8 inhibitor against acute myeloid leukemia” (Eur J Med Chem, 2023).

In series [1] the target is Cyclin-dependent kinase 8 (Homo sapiens, UniProt P49336). Nature of the series: Inhibition of CDK8 (unknown origin) in presence of ATP by ADP-Glo assay. In general terms: ADP-Glo turns the ADP formed in a reaction into a luminescent signal.
Series [2] concerns MDA-MB-231. Nature of the series: Antiproliferative activity against human MDA-MB-231 cells incubated for 48 hrs by CCK8 assay. The format is functional. (In general: Formazan colour is commonly taken as a measure of viable cells.)
Series [3] has as its system HT-29. The series is described as follows: Antiproliferative activity against human HT-29 cells incubated for 48 hrs by CCK8 assay. The format is functional.
The target in series [4] is CDK8/Cyclin C (Homo sapiens) (UniProt P49336+P24863). The series is described as follows: Inhibition of CDK8/Cyclin C (unknown origin) at 1 uM preincubated for 10 mins followed by substrate addition measured for 60 to 120 mins by HTRF assay relative to control. The format is protein-complex assay. Conditions: time 70-130 min.
Series [5] has as its target CDK9/cyclin T1 (Homo sapiens) (UniProt O60563+P50750). The series is described as follows: Inhibition of CDK9/Cyclin T1 (unknown origin) at 1 uM preincubated for 10 mins followed by substrate addition measured for 60 to 120 mins by HTRF assay relative to control. The format is protein-complex assay. Conditions: time 70-130 min. On the technique in general: Time-resolved FRET reads energy transfer from a long-lived donor to a nearby acceptor.

The target in series [6] is CDK2/Cyclin A2 (Homo sapiens) (UniProt P24941+P20248). Nature of the series: Inhibition of CDK2/Cyclin A2 (unknown origin) at 1 uM preincubated for 10 mins followed by substrate addition measured for 60 to 120 mins by HTRF assay relative to control. The format is protein-complex assay. Conditions: time 70-130 min.
For series [7], the target named is CDK7/Cyclin H/MNAT1 (Homo sapiens, UniProt P50613). Nature of the series: Inhibition of CDK7/Cyclin H/MAT1 (unknown origin) preincubated for 10 mins followed by substrate addition measured for 60 to 120 mins by HTRF assay. The format is protein-complex assay.
Series [8] addresses Tyrosine-protein kinase Lyn (Homo sapiens) (UniProt P07948). The series is described as follows: Inhibition of LYN a (unknown origin) at 1 uM preincubated for 10 mins followed by substrate addition measured for 60 to 120 mins by HTRF assay relative to control. Conditions: time 70-130 min.
In series [9] the target is Fibroblast growth factor receptor 4 (Homo sapiens) (UniProt P22455). Nature of the series: Inhibition of FGFR4 (unknown origin) at 1 uM preincubated for 10 mins followed by substrate addition measured for 60 to 120 mins by HTRF assay relative to control. Conditions: time 70-130 min.
Fibroblast growth factor receptor 4 (Homo sapiens), sequence (P22455 22-802 limits assumed): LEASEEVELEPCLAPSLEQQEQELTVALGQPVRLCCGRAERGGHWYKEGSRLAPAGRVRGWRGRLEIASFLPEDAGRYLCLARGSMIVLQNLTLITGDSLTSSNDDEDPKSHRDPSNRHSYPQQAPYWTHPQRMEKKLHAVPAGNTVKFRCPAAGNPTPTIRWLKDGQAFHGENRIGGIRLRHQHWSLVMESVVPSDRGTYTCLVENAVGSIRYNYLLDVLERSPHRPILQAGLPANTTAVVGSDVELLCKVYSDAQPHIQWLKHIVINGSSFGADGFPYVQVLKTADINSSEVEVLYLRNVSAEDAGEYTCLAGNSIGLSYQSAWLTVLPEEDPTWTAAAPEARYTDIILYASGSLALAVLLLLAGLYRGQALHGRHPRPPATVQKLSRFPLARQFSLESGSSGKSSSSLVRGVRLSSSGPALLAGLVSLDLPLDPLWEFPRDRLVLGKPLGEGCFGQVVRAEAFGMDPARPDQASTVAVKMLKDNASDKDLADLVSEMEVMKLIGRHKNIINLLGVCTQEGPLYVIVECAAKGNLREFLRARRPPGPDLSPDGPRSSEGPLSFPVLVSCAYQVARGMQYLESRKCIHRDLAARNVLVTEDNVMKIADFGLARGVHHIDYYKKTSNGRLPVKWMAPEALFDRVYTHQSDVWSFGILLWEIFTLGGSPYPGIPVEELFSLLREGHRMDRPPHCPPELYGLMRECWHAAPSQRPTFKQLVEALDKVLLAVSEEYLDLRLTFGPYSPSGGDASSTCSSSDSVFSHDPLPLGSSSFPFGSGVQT
The target in series [10] is Insulin receptor (Homo sapiens) (UniProt P06213). Nature of the series: Inhibition of INSR (unknown origin) at 1 uM preincubated for 10 mins followed by substrate addition measured for 60 to 120 mins by HTRF assay relative to control. Conditions: time 70-130 min.
Series [11] deals with Muscle, skeletal receptor tyrosine-protein kinase (Homo sapiens) (UniProt O15146). The series is described as follows: Inhibition of MUSK (unknown origin) at 1 uM preincubated for 10 mins followed by substrate addition measured for 60 to 120 mins by HTRF assay relative to control. Conditions: time 70-130 min.
Muscle, skeletal receptor tyrosine-protein kinase (Homo sapiens), sequence (O15146 whole entry): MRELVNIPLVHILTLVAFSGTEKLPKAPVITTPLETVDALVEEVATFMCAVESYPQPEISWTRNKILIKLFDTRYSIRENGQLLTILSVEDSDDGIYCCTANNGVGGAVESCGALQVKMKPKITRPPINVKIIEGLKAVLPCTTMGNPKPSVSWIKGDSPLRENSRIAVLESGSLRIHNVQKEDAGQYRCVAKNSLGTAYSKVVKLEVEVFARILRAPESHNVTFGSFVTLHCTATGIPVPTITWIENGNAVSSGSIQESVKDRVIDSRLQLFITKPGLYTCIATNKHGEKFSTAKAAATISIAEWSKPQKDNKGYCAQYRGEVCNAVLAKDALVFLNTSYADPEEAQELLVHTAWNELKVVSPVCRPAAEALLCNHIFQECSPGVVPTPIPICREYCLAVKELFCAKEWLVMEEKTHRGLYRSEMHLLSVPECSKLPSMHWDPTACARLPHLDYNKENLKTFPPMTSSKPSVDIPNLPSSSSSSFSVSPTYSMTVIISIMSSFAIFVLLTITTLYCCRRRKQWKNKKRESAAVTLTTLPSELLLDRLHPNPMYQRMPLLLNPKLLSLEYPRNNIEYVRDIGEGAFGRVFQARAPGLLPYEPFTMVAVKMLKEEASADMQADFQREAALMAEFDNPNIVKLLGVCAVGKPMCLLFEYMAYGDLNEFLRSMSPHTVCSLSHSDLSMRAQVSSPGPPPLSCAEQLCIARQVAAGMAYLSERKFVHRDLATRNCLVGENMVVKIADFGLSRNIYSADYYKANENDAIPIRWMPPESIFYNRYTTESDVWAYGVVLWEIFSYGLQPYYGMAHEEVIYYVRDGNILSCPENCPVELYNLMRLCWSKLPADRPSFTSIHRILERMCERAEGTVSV
Series [12] has as its target Ephrin type-A receptor 6 (Homo sapiens) (UniProt Q9UF33). The series is described as follows: Inhibition of EPHA6 (unknown origin) at 1 uM preincubated for 10 mins followed by substrate addition measured for 60 to 120 mins by HTRF assay relative to control. Conditions: time 70-130 min.
The target of series [13] is Receptor tyrosine-protein kinase erbB-4 (Homo sapiens) (UniProt Q15303). The series is described as follows: Inhibition of HER4 (unknown origin) at 1 uM preincubated for 10 mins followed by substrate addition measured for 60 to 120 mins by HTRF assay relative to control. Conditions: time 70-130 min.
In series [14] the target is Ephrin type-A receptor 2 (Homo sapiens) (UniProt P29317). Nature of the series: Inhibition of EPHA2 (unknown origin) at 1 uM preincubated for 10 mins followed by substrate addition measured for 60 to 120 mins by HTRF assay relative to control. Conditions: time 70-130 min.
Ephrin type-A receptor 2 (Homo sapiens), sequence (P29317 whole entry): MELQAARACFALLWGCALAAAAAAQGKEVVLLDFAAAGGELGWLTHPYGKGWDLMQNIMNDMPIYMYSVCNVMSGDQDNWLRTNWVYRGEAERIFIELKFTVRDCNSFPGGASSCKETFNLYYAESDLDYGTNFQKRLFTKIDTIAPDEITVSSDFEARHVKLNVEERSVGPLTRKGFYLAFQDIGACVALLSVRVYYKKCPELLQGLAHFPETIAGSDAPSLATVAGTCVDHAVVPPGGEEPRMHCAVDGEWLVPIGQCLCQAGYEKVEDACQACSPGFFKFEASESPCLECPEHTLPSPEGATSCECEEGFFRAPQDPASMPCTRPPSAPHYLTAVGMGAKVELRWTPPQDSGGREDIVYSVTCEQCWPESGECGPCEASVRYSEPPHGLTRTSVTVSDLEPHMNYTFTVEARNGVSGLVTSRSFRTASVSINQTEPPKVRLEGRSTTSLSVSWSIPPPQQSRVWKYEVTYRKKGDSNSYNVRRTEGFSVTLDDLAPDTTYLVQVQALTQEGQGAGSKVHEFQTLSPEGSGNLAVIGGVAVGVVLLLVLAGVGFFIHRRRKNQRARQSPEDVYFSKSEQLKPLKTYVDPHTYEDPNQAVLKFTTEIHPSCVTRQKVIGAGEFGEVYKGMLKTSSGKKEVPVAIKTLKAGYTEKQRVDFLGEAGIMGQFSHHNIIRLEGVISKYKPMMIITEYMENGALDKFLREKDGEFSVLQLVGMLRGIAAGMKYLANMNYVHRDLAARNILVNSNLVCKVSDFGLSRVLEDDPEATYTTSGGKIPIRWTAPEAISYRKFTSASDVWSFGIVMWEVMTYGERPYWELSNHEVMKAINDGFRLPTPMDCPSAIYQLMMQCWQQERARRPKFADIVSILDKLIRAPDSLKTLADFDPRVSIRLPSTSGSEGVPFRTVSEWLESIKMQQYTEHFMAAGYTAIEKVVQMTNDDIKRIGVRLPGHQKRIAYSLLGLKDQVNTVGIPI
In series [15] the target is Mast/stem cell growth factor receptor Kit (Homo sapiens) (UniProt P10721). Nature of the series: Inhibition of KIT (unknown origin) at 1 uM preincubated for 10 mins followed by substrate addition measured for 60 to 120 mins by HTRF assay relative to control. Conditions: time 70-130 min.
Mast/stem cell growth factor receptor Kit (Homo sapiens), sequence (P10721 whole entry): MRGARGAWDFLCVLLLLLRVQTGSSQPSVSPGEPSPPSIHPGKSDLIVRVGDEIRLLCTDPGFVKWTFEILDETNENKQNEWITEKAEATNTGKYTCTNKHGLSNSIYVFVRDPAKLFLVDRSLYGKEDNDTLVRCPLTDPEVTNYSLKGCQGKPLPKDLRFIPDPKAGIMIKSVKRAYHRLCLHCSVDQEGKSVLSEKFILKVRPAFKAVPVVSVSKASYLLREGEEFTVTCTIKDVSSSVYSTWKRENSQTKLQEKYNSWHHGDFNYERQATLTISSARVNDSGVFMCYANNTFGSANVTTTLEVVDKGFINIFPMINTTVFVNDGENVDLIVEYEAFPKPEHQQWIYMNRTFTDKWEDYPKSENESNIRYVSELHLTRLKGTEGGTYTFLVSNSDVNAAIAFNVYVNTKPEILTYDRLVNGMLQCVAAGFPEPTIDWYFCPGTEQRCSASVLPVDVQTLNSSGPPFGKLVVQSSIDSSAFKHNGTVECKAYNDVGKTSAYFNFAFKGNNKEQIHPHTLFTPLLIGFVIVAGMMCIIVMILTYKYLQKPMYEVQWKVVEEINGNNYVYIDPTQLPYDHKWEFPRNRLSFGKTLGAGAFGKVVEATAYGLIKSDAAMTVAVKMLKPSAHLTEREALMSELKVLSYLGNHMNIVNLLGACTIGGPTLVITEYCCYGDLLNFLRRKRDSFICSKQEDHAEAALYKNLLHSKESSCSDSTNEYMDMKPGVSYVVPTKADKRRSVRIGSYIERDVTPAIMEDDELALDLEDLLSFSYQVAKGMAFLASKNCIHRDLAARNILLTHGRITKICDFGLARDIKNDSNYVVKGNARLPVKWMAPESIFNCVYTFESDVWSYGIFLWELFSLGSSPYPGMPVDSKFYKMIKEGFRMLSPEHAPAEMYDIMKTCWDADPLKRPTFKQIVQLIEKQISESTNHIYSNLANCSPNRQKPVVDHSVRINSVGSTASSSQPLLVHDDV
The test system of series [16] is HL-60. Nature of the series: Induction of apoptosis in human HL-60 cells assessed as early apoptosis cells at 1 uM incubated for 48 hrs by annexin V-FITC/PI staining based flow cytometry (reference value: 2.08 %). The format is functional.
The nature of series [17]: Clearance in Sprague-Dawley rat at 10 mg/kg, po. Conditions: in vivo. The format is ADME, organism-based.
The nature of series [18]: Cmax in Sprague-Dawley rat at 2 mg/kg, iv. The format is ADME, organism-based. The arrangement: dose 2 mg/kg, route iv. Conditions: in vivo.

Structures are written as SMILES.

Cyclin-dependent kinase 8, sequence (P49336 whole entry): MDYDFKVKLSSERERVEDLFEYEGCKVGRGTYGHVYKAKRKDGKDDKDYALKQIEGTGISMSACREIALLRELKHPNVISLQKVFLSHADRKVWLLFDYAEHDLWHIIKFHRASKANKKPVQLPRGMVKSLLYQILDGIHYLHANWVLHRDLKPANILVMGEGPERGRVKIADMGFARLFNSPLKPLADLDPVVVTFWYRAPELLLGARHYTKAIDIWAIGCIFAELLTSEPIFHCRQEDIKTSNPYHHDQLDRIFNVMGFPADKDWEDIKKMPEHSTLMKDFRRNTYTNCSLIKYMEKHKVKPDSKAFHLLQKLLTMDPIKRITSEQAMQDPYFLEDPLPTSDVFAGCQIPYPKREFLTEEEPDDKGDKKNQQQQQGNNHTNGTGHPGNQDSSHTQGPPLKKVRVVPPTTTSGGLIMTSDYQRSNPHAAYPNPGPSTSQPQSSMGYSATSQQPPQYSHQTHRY
Tyrosine-protein kinase Lyn (Homo sapiens), sequence (P07948 2-512 limits assumed): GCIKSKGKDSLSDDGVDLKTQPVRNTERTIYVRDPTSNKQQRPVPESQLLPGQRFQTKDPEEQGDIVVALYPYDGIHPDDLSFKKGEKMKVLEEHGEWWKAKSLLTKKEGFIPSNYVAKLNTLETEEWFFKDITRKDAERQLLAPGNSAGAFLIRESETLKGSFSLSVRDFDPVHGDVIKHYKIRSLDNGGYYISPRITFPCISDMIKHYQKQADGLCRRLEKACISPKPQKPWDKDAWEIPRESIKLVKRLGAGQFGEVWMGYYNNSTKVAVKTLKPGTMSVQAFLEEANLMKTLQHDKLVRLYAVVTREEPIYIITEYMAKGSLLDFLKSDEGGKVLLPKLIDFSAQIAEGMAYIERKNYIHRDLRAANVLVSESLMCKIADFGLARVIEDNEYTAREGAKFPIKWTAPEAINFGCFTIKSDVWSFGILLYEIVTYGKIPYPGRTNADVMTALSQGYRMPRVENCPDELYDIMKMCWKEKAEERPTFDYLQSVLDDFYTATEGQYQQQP

Take `NC(=O)c1cccc(-c2cnc3[nH]ccc3c2)c1`: the IC50 in series [1] was found to be 0.0519 µM; in [7], 0.428 µM. In addition, the GI50 in series [2] and in series [3] was more than 50 µM each time. Also, the inhibition in series [4] is 38.9%; in series [5] it was 7.41%; in series [6], 3.99%; in [8], 15.4%; in [9], 14.1%; in series [10] it was 7.74%. For the same compound, the inhibition turned out to be 3.63% in [11]; 0% in series [12]; 0% in [13]; 0% in series [14]; 0% in [15]. In addition, in [16], the Activity stood at 79.4%. Moreover, the CL/F in series [17] was 285 mL/min/kg. In [18], the Cmax stood at 231 ng/mL.

A word on the IC50: it is the concentration that inhibits the measured activity by half. As a reminder, the GI50 is the concentration at which growth is held to half of that of the control. By inhibition is commonly meant how much of the control response was suppressed. What is called CL/F is clearance divided by bioavailability, as obtained after extravascular dosing. Broadly, the Cmax is the maximum level reached in the sampled fluid or tissue.
